Five compounds from DBAASP can be followed below.

Among the test systems are Acinetobacter baumannii; Bacillus subtilis 168; Candida albicans CA14; Escherichia coli 780; Escherichia coli 850; Escherichia coli K-12; Escherichia coli IP76-24; Escherichia coli 170; Escherichia coli 5580; Salmonella typhimurium.
Common to all, as to assay: ≥ marks a high value that may be exact or a test limit, other limits are often not marked, values filed in µg/mL are converted to µM
Experiment [1] concerns Acinetobacter baumannii ATCC 19606.
Experiment [2] relates to Bacillus subtilis ATCC 23857.
The subject of experiment [3] is Enterococcus faecalis ATCC 29212.
In experiment [4] the test system is Escherichia coli ATCC 25922.
In experiment [5] the test system is Klebsiella pneumoniae ATCC 700603.
In experiment [6] the test system is Pseudomonas aeruginosa 2760.
Experiment [7] has as its system Pseudomonas aeruginosa ATCC 27853.
For experiment [8], the system named is Saccharomyces cerevisiae BY4741.
Experiment [9] deals with Staphylococcus aureus 725.
For experiment [10], the system named is Staphylococcus aureus 936.
Experiment [11] relates to Staphylococcus aureus ATCC 25923.
In experiment [12] the test system is Staphylococcus aureus RN4220.
Experiment [13] concerns Aeromonas caviae IP67-16T.
For experiment [14], the system named is Aspergillus fumigatus IP1025-70.
For experiment [15], the system named is Aspergillus niger IP218-53.
Experiment [16] relates to Candida albicans IP884-65.
For experiment [17], the system named is Cryptococcus neoformans IP960-67.
In experiment [18] the test system is Enterococcus faecalis IP103214.
Experiment [19] concerns Nocardia brasiliensis IP16-80.
The test system of experiment [20] is Saccharomyces cerevisiae IP118079.
For experiment [21], the system named is Staphylococcus aureus IP76-25.
The subject of experiment [22] is Trichophyton simii IP1063-74.
In experiment [23] the test system is Enterobacter cloacae 2524.
Experiment [24] has as its system Enterobacter cloacae 6266.
In experiment [25] the test system is Klebsiella pneumoniae 1625.
Experiment [26] relates to Klebsiella pneumoniae 68228.
In experiment [27] the test system is Klebsiella pneumoniae 913.
Experiment [28] relates to Pseudomonas aeruginosa 3599.
Experiment [29] has as its system Pseudomonas aeruginosa 4677.
Experiment [30] deals with Pseudomonas aeruginosa 5106.
The test system of experiment [31] is Streptococcus pneumoniae ATCC 49619.
For experiment [32], the system named is Bacillus subtilis PCI 219.
The subject of experiment [33] is Escherichia coli NIHJ JC-2.
In experiment [34] the test system is Pseudomonas aeruginosa U-31.
In experiment [35] the test system is Staphylococcus aureus FDA 209P.
Experiment [36] relates to Enterobacter cloacae 6780.

≈ marks a conversion by molar mass, not a printed value.

In the case of `CC[C@H](C)[C@H](NC(=O)[C@H](CCCCN)NC(=O)[C@H](CCCCN)NC(=O)[C@H](C)NC(=O)[C@H](CC(C)C)NC(=O)[C@H](C)NC(=O)[C@H](C)NC(=O)[C@H](CC(C)C)NC(=O)[C@H](C)NC(=O)[C@H](CCCCN)NC(=O)[C@H](CC(C)C)NC(=O)[C@H](CC(N)=O)NC(=O)[C@@H](NC(=O)[C@H](CCCCN)NC(=O)CNC(=O)[C@H](CC(C)C)NC(=O)[C@H](CC(C)C)NC(=O)[C@H](Cc1ccc(O)cc1)NC(=O)CNC(=O)[C@H](C)N)[C@@H](C)CC)C(=O)N[C@@H](CC(C)C)C(=O)O` [AGYLLGKINLKALAALAKKIL], the MIC in [1] was 3.67 µM (≈ 8 µg/mL); with Acinetobacter baumannii, 3.67 µM (≈ 8 µg/mL); against Bacillus subtilis 168, 10 µM (≈ 21.8 µg/mL); in experiment [2], 3.67 µM (≈ 8 µg/mL); against Candida albicans CA14 it was 4 µM (≈ 8.73 µg/mL); in [3], 14.7 µM (≈ 32 µg/mL). In addition, the MIC is 7.33 µM (≈ 16 µg/mL) with Escherichia coli 780; 7.33 µM (≈ 16 µg/mL) against Escherichia coli 850; 7.33 µM (≈ 16 µg/mL) in experiment [4]; 10 µM (≈ 21.8 µg/mL) against Escherichia coli K-12; 14.7 µM (≈ 32 µg/mL) in experiment [5]; 7.33 µM (≈ 16 µg/mL) in experiment [6]. In addition, the minimum inhibitory concentration (MIC) in experiment [7] amounted to 14.7 µM (≈ 32 µg/mL); in experiment [8] it was 8 µM (≈ 17.5 µg/mL); in experiment [9], 7.33 µM (≈ 16 µg/mL); in experiment [10] it was 7.33 µM (≈ 16 µg/mL); in [11], 7.33 µM (≈ 16 µg/mL); in experiment [12], 4 µM (≈ 8.73 µg/mL).
For `CC[C@H](C)[C@H](NC(=O)CNC(=O)[C@H](CCCCN)NC(=O)[C@H](CC(C)C)NC(=O)[C@H](CCSC)NC(=O)[C@H](CC(N)=O)NC(=O)[C@H](CCCCN)NC(=O)[C@H](Cc1c[nH]c2ccccc12)NC(=O)[C@H](CC(C)C)NC(=O)[C@H](C)N)C(N)=O` [ALWKNMLKGI], the MIC was 7 µM (≈ 8.21 µg/mL) in experiment [13]; not below 150 µM in experiment [14]; not below 150 µM in experiment [15]; not below 150 µM in experiment [16]; 25 µM (≈ 29.3 µg/mL) in experiment [17]; 7 µM (≈ 8.21 µg/mL) in [18]. The MIC in the experiment with Escherichia coli IP76-24 is 14 µM (≈ 16.4 µg/mL); in experiment [19], not below 150 µM; in [20], not below 50 µM; in experiment [21], not below 150 µM; in experiment [22] it was not below 150 µM.
In the case of `CC[C@H](C)[C@H](NC(=O)CN)C(=O)N[C@@H](CC(C)C)C(=O)N[C@@H](CCCCN)C(=O)N[C@H](C(=O)N[C@H](C(=O)N[C@@H](CCCCN)C(=O)N[C@@H](CO)C(=O)N[C@H](C(=O)N[C@@H](C)C(=O)N[C@@H](CO)C(=O)N[C@@H](CCCCN)C(=O)N[C@H](C(=O)N[C@@H](C)C(=O)N[C@@H](CC(N)=O)C(=O)N[C@H](C(=O)N[C@H](C(=O)N[C@@H](CCC(N)=O)C(=O)N[C@@H](CCCCN)C(=O)N[C@@H](CC(C)C)C(=O)N[C@@H](CCCCN)C(=O)N[C@@H](CCCN=C(N)N)C(=O)N[C@@H](CCCCN)C(=O)N[C@@H](C)C(=O)N[C@@H](CCCCN)C(=O)N[C@@H](CC(N)=O)C(=O)N[C@@H](C)C(=O)N[C@H](C(=O)N[C@@H](C)C(=O)O)C(C)C)C(C)C)[C@@H](C)O)C(C)C)[C@@H](C)CC)[C@@H](C)CC)[C@@H](C)O` [GILKTIKSIASKVANTVQKLKRKAKNAVA], the MIC was found to be 3.1 µM (≈ 9.55 µg/mL) with Acinetobacter baumannii; 6.2 µM (≈ 19.1 µg/mL) in experiment [23]; 3.1 µM (≈ 9.55 µg/mL) in experiment [24]; 3.1 µM (≈ 9.55 µg/mL) with Escherichia coli 170; 1.6 µM (≈ 4.93 µg/mL) against Escherichia coli 5580; 1.6 µM (≈ 4.93 µg/mL) in experiment [4]. Further, the MIC in [25] was 1.6 µM (≈ 4.93 µg/mL); in experiment [26] it was 6.2 µM (≈ 19.1 µg/mL); in experiment [27] it was 3.1 µM (≈ 9.55 µg/mL); in [28], not below 50 µM; in experiment [29], 25 µM (≈ 77 µg/mL); in experiment [30] it was 12 µM (≈ 37 µg/mL). In addition, the results for the MIC (against Salmonella typhimurium; in [31]) were 3.15 µM (≈ 9.7 µg/mL) and 25 µM (≈ 77 µg/mL), respectively.
Regarding `CC(C)C[C@H](NC(=O)[C@H](CCCCN)NC(=O)[C@H](CCCCN)NC(=O)[C@H](CC(C)C)NC(=O)[C@H](CC(C)C)NC(=O)[C@H](CCCCN)NC(=O)[C@H](CCCCN)NC(=O)[C@H](Cc1c[nH]c2ccccc12)NC(=O)[C@H](CCCCN)NC(=O)[C@H](CCCCN)NC(=O)[C@H](CC(C)C)NC(=O)[C@H](CC(C)C)NC(=O)[C@H](CCCCN)NC(=O)[C@H](CCCCN)NC(=O)[C@H](CC(C)C)NC(=O)[C@H](CCCCN)NC(=O)[C@@H](N)CCCCN)C(=O)N[C@@H](CCCCN)C(=O)O` [KKLKKLLKKWKKLLKKLK], the MIC in experiment [32], in experiment [33], in experiment [34] and in experiment [35] was not below 43.6 µM throughout.
In the case of `CC(C)C[C@H](NC(=O)[C@H](CCCCN)NC(=O)[C@H](CCC(N)=O)NC(=O)[C@@H](NC(=O)[C@@H](NC(=O)[C@H](CC(N)=O)NC(=O)[C@H](C)NC(=O)[C@@H](NC(=O)[C@@H](N)CCCCN)C(C)C)[C@@H](C)O)C(C)C)C(=O)N[C@@H](CCCCN)C(=O)N[C@@H](CCCN=C(N)N)C(=O)N[C@@H](CCCCN)C(=O)N[C@@H](C)C(=O)N[C@@H](CCCCN)C(=O)N[C@@H](CC(N)=O)C(=O)N[C@@H](C)C(=O)N[C@H](C(=O)O)C(C)C` [KVANTVQKLKRKAKNAV], the MIC in the experiment with Acinetobacter baumannii is not below 50 µM; in [23], 25 µM (≈ 47.4 µg/mL); in experiment [36], not below 50 µM; in the experiment on Escherichia coli 170 it was not below 50 µM; in [4], more than 50 µM; in [27], not below 50 µM. Moreover, the MIC in experiment [29] is not below 50 µM.

What is called MIC is the lowest concentration that inhibits growth of the organism. A low value points to a more susceptible organism.
